Experimental data published in patent publication US20200129499A1, “COMBINATION OF TASQUINIMOD OR A PHARMACEUTICALLY ACCEPTABLE SALT THEREOF AND A PD-1 AND/OR PD-L1 INHIBITOR, FOR USE AS A MEDICAMENT” (ACTIVE BIOTECH AB, priority 2015, published 2020).

Tests used:
[1] = system: MBT-2 tumors; assay: Gene expression profiling (qRT-PCR) in MBT-2 tumors after 10 days of tasquinimod (Example 2); type: in vivo, mouse; details: 30 mg/kg p.o. twice daily from day 10 for 10 days; FIG. 2
Experimental: FIG. 2: Gene expression profiling in MBT-2 tumors derived from mice treated with 30 mg/kg p.o. of tasquinimod twice daily from day 10 after tumor inoculation. Tasquinimod treatment was carried out for 10 days. Data are represented as fold change of treated tumors compared to control tumors.
Mice were treated as described in Example 1. After 10 days of treatment with tasquinimod, i.e. 20 days after tumor inoculation, RNA from tumors was isolated from 100 μηη of OCT-embedded tumor cryosections using Trizol Reagent (Life Technologies). RNA concentration and purity was determined through measurement of A260/A280 ratios with a NanoDrop ND-1000 spectrophotometer. RNA integrity was checked using the Agilent 2100 Bioanalyzer. cDNA was prepared using High-Capacity cDNA Reverse Transcription Kit (LifeTechnologies) following the manufacturer's instructions. Q-PCR was performed with a […] PCR-protocol (95° C. for 10 min, followed by 40 cycles of 95° C. for 15 sec and 60° C. for 1 min) using Taqman gene expression (LifeTechnologies). Expression levels were calculated as normalized ACt expression values between target gene and the two “housekeeping” and Hmbs and Cyclophilin A for Taqman technology. Data were presented as fold induction (2AACt) of treated tumors compared to control tumors. The probes used in the experiments are the following: […]

[2] = system: PD-L1 in CD1 1b+ cells; assay: FACS analysis of PD-L1 on tumor CD11b+ myeloid cells; type: in vivo, mouse
Experimental: FIG. 3: Median Fluorescence Intensity (MFI) of PD-L1 in CD1 1b+ cells derived from mice bearing tumors treated with tasquinimod. The mice were treated with 30 mg/kg p.o. of tasquinimod twice daily from day 10 after tumor inoculation. Tasquinimod treatment was carried out for 7 days. This analysis was done by cytometry.
FIG. 4: Treatment with tasquinimod had no effect on established MBT-2 tumor growth and induced an alteration in the profile of PD-1/PD-L1 axis. (A) Growth curves and (B) tumor weight of MBT-2 tumors treated with tasquinimod at 30 mg/kg (oral gavage, twice daily) after randomization at day 11 post tumor-cell inoculation (n=12). Mice were sacrificed. Tumors were harvested, digested and then subjected to surface staining. […] (D) Quantitative data of the Median Fluorescence Intensity of PD-L1 gated on infiltrating myeloid cells CD1 1b+ (*, P<0.05; Mann-Whitney test, n=5 mice per group).
Mice were treated as described in Example 1. […] Cells were analyzed by Fortessa X-20 (BD Biosciences).
Single cell suspensions were prepared from tumors by incubating the tumors cross-cut into small pieces in 8 mg/ml Collagenase IV (Life Technologies) and 0.1% DNase (Sigma-Aldrich) for 45 min at 37° C. […] Data were analyzed using FlowJo software (Tree Star Inc.). […] This procedure yielded predominantly CD1 1b+ cells with purity greater than 80% as assessed by FACS analysis.

COc1cccc2c1c(O)c(C(=O)N(C)c1ccc(C(F)(F)F)cc1)c(=O)n2C [tasquinimod, 4-hydroxy-5-methoxy-N,1-dimethyl-2-oxo-N-[4-(trifluoromethyl)phenyl]-1,2-dihydroquinoline-3-carboxamide]
expression of 11-12b [1]: increase
expression of CD206, a M2 macrophage marker [1]: decrease
expression of nos2 [1]: increase
mRNA expression of Cd274 in the tumor microenvironment [1]: increase
median fluorescence intensity of PD-L1 expressed on myeloid cells ([2]; 30 mg/kg p.o. twice daily from day 10 for 7 days, FIG. 3): increase
expression of PD-L1 gated on CD1 1b+ cells ([2]; established MBT-2 tumors, tasquinimod 30 mg/kg, day 15, FIGS. 4C and D): increase
